{"source": "ChEMBL document CHEMBL3244003", "about": "“Synthesis and biological activity of several amino analogues of thymidine” (1978)", "key": {"CCRF S-180 [1]": {"test_system": "CCRF S-180", "experiment": "Antineoplastic activity against mouse S180 cells at 400 uM", "assay_type": "functional, cell-based"}, "L1210 [2]": {"test_system": "L1210", "experiment": "Antineoplastic activity against mouse L1210 cells at 400 uM", "assay_type": "functional, cell-based"}, "Human alphaherpesvirus 1": {"test_system": "Human alphaherpesvirus 1", "experiment": "Antiviral activity against HSV1 at 400 uM", "assay_type": "functional"}, "L1210 [3]": {"test_system": "L1210", "experiment": "Antineoplastic activity against mouse L1210 cells at 15 uM", "assay_type": "functional"}, "L1210 [4]": {"test_system": "L1210", "experiment": "Antineoplastic activity against mouse L1210 cells at 5 uM in presence of cytidine relative to compound alone", "assay_type": "functional"}, "L1210 [5]": {"test_system": "L1210", "experiment": "Antineoplastic activity against mouse L1210 cells at 3 uM in presence of thymidine relative to compound alone", "assay_type": "functional"}, "L1210 [6]": {"test_system": "L1210", "experiment": "Antineoplastic activity against mouse L1210 cells at 1 uM in presence of deoxycytidine relative to compound alone", "assay_type": "functional"}, "CCRF S-180 [7]": {"test_system": "CCRF S-180", "experiment": "Antineoplastic activity against mouse S180 cells at 50 uM", "assay_type": "functional"}, "L1210 [8]": {"test_system": "L1210", "experiment": "Antineoplastic activity against mouse L1210 cells at 25 uM in presence of deoxyadenosine relative to compound alone", "assay_type": "functional"}, "L1210 [9]": {"test_system": "L1210", "experiment": "Antineoplastic activity against mouse L1210 cells at 1 uM in presence of deoxyguanosine relative to compound alone", "assay_type": "functional"}, "L1210 [10]": {"test_system": "L1210", "experiment": "Antineoplastic activity against mouse L1210 cells at 1 uM", "assay_type": "functional"}, "L1210 [11]": {"test_system": "L1210", "experiment": "Antineoplastic activity against mouse L1210 cells at 5 uM in presence of deoxyguanosine relative to compound alone", "assay_type": "functional"}, "CCRF S-180 [12]": {"test_system": "CCRF S-180", "experiment": "Antineoplastic activity against mouse S180 cells at 5 uM", "assay_type": "functional"}, "L1210 [13]": {"test_system": "L1210", "experiment": "Antineoplastic activity against mouse L1210 cells at 5 uM in presence of deoxyadenosine relative to compound alone", "assay_type": "functional"}, "CCRF S-180 [14]": {"test_system": "CCRF S-180", "experiment": "Antineoplastic activity against mouse S180 cells at 250 uM", "assay_type": "functional"}, "L1210 [15]": {"test_system": "L1210", "experiment": "Antineoplastic activity against mouse L1210 cells at 1 uM in presence of cytidine relative to compound alone", "assay_type": "functional"}, "L1210 [16]": {"test_system": "L1210", "experiment": "Antineoplastic activity against mouse L1210 cells at 1 uM in presence of thymidine relative to compound alone", "assay_type": "functional"}, "L1210 [17]": {"test_system": "L1210", "experiment": "Antineoplastic activity against mouse L1210 cells at 5 uM in presence of uridine relative to compound alone", "assay_type": "functional"}, "L1210 [18]": {"test_system": "L1210", "experiment": "Antineoplastic activity against mouse L1210 cells at 3 uM", "assay_type": "functional"}, "L1210 [19]": {"test_system": "L1210", "experiment": "Antineoplastic activity against mouse L1210 cells at 25 uM", "assay_type": "functional"}, "L1210 [20]": {"test_system": "L1210", "experiment": "Antineoplastic activity against mouse L1210 cells at 25 uM in presence of uridine relative to compound alone", "assay_type": "functional"}, "L1210 [21]": {"test_system": "L1210", "experiment": "Antineoplastic activity against mouse L1210 cells at 27 uM in presence of thymidine relative to compound alone", "assay_type": "functional"}, "L1210 [22]": {"test_system": "L1210", "experiment": "Antineoplastic activity against mouse L1210 cells at 1 uM in presence of deoxyuridine relative to compound alone", "assay_type": "functional"}, "L1210 [23]": {"test_system": "L1210", "experiment": "Antineoplastic activity against mouse L1210 cells at 1 uM in presence of uridine relative to compound alone", "assay_type": "functional"}, "L1210 [24]": {"test_system": "L1210", "experiment": "Antineoplastic activity against mouse L1210 cells at 25 uM in presence of deoxycytidine relative to compound alone", "assay_type": "functional"}, "L1210 [25]": {"test_system": "L1210", "experiment": "Antineoplastic activity against mouse L1210 cells at 25 uM in presence of cytidine relative to compound alone", "assay_type": "functional"}, "L1210 [26]": {"test_system": "L1210", "experiment": "Antineoplastic activity against mouse L1210 cells at 250 uM", "assay_type": "functional"}, "L1210 [27]": {"test_system": "L1210", "experiment": "Antineoplastic activity against mouse L1210 cells at 5 uM in presence of deoxycytidine relative to compound alone", "assay_type": "functional"}, "L1210 [28]": {"test_system": "L1210", "experiment": "Antineoplastic activity against mouse L1210 cells at 25 uM in presence of deoxyguanosine relative to compound alone", "assay_type": "functional"}, "CCRF S-180 [29]": {"test_system": "CCRF S-180", "experiment": "Antineoplastic activity against mouse S180 cells at 1 uM", "assay_type": "functional"}, "L1210 [30]": {"test_system": "L1210", "experiment": "Antineoplastic activity against mouse L1210 cells at 500 uM", "assay_type": "functional"}, "L1210 [31]": {"test_system": "L1210", "experiment": "Antineoplastic activity against mouse L1210 cells at 50 uM", "assay_type": "functional"}, "L1210 [32]": {"test_system": "L1210", "experiment": "Antineoplastic activity against mouse L1210 cells at 0.5 uM", "assay_type": "functional"}, "L1210 [33]": {"test_system": "L1210", "experiment": "Antineoplastic activity against mouse L1210 cells at 5 uM in presence of deoxyuridine relative to compound alone", "assay_type": "functional"}, "CCRF S-180 [34]": {"test_system": "CCRF S-180", "experiment": "Antineoplastic activity against mouse S180 cells at 25 uM", "assay_type": "functional"}, "L1210 [35]": {"test_system": "L1210", "experiment": "Antineoplastic activity against mouse L1210 cells at 9 uM in presence of thymidine relative to compound alone", "assay_type": "functional"}, "L1210 [36]": {"test_system": "L1210", "experiment": "Antineoplastic activity against mouse L1210 cells at 25 uM in presence of deoxyuridine relative to compound alone", "assay_type": "functional"}, "L1210 [37]": {"test_system": "L1210", "experiment": "Antineoplastic activity against mouse L1210 cells at 1 uM in presence of deoxyadenosine relative to compound alone", "assay_type": "functional"}}, "note": "The source made the active and inactive calls. The calls are words filed in the database; no cut-off is given here.", "data": [{"smiles": "Cc1cn([C@H]2C[C@H](O)[C@@H](CN)O2)c(=O)[nH]c1=O", "values": [{"measurement": "inhibition", "setting": "CCRF S-180 [1]", "value": "inactive"}, {"measurement": "inhibition", "setting": "L1210 [2]", "value": "inactive"}, {"measurement": "inhibition at 400 µM", "setting": "Human alphaherpesvirus 1", "value": 98, "unit": "%"}]}, {"smiles": "Cc1cn([C@H]2C[C@H](N)[C@@H](CN)O2)c(=O)[nH]c1=O", "values": [{"measurement": "inhibition", "setting": "CCRF S-180 [1]", "value": "inactive"}, {"measurement": "inhibition", "setting": "L1210 [2]", "value": "inactive"}, {"measurement": "inhibition", "setting": "Human alphaherpesvirus 1", "value": "inactive"}]}, {"smiles": "Cc1cn([C@H]2C[C@H](N)[C@@H](CO)O2)c(=O)[nH]c1=O", "note": "[3-AMINO- 3-DEOXYTHYMIDINE]", "values": [{"measurement": "inhibition at 15 µM", "setting": "L1210 [3]", "value": 91, "unit": "%"}, {"measurement": "inhibition at 5 µM", "setting": "L1210 [4]", "value": 100, "unit": "%"}, {"measurement": "inhibition at 3 µM", "setting": "L1210 [5]", "value": 55.2, "unit": "%"}, {"measurement": "inhibition at 1 µM", "setting": "L1210 [6]", "value": 80, "unit": "%"}, {"measurement": "inhibition at 50 µM", "setting": "CCRF S-180 [7]", "value": 66, "unit": "%"}, {"measurement": "inhibition at 25 µM", "setting": "L1210 [8]", "value": 93, "unit": "%"}, {"measurement": "inhibition at 1 µM", "setting": "L1210 [9]", "value": 87, "unit": "%"}, {"measurement": "inhibition at 1 µM", "setting": "L1210 [10]", "value": 58, "unit": "%"}, {"measurement": "inhibition at 5 µM", "setting": "L1210 [11]", "value": 86, "unit": "%"}, {"measurement": "inhibition at 5 µM", "setting": "CCRF S-180 [12]", "value": 55, "unit": "%"}, {"measurement": "inhibition at 5 µM", "setting": "L1210 [13]", "value": 89, "unit": "%"}, {"measurement": "inhibition at 250 µM", "setting": "CCRF S-180 [14]", "value": 73, "unit": "%"}, {"measurement": "inhibition at 1 µM", "setting": "L1210 [15]", "value": 100, "unit": "%"}, {"measurement": "inhibition at 1 µM", "setting": "L1210 [16]", "value": 75.2, "unit": "%"}, {"measurement": "inhibition at 5 µM", "setting": "L1210 [17]", "value": 99, "unit": "%"}, {"measurement": "inhibition at 3 µM", "setting": "L1210 [18]", "value": 87, "unit": "%"}, {"measurement": "inhibition at 25 µM", "setting": "L1210 [19]", "value": 88, "unit": "%"}, {"measurement": "inhibition at 25 µM", "setting": "L1210 [20]", "value": 95, "unit": "%"}, {"measurement": "inhibition at 27 µM", "setting": "L1210 [21]", "value": 22.4, "unit": "%"}, {"measurement": "inhibition at 1 µM", "setting": "L1210 [22]", "value": 88, "unit": "%"}, {"measurement": "inhibition at 1 µM", "setting": "L1210 [23]", "value": 100, "unit": "%"}, {"measurement": "inhibition at 25 µM", "setting": "L1210 [24]", "value": 28, "unit": "%"}, {"measurement": "inhibition at 25 µM", "setting": "L1210 [25]", "value": 99, "unit": "%"}, {"measurement": "inhibition at 250 µM", "setting": "L1210 [26]", "value": 93, "unit": "%"}, {"measurement": "inhibition at 5 µM", "setting": "L1210 [27]", "value": 61, "unit": "%"}, {"measurement": "inhibition at 25 µM", "setting": "L1210 [28]", "value": 102, "unit": "%"}, {"measurement": "inhibition at 1 µM", "setting": "CCRF S-180 [29]", "value": 37, "unit": "%"}, {"measurement": "inhibition at 500 µM", "setting": "L1210 [30]", "value": 95, "unit": "%"}, {"measurement": "inhibition at 50 µM", "setting": "L1210 [31]", "value": 92, "unit": "%"}, {"measurement": "inhibition at 0.5 µM", "setting": "L1210 [32]", "value": 43, "unit": "%"}, {"measurement": "inhibition at 5 µM", "setting": "L1210 [33]", "value": 74, "unit": "%"}, {"measurement": "inhibition at 25 µM", "setting": "CCRF S-180 [34]", "value": 68, "unit": "%"}, {"measurement": "inhibition at 400 µM", "setting": "Human alphaherpesvirus 1", "value": 62, "unit": "%"}, {"measurement": "inhibition at 9 µM", "setting": "L1210 [35]", "value": 38.1, "unit": "%"}, {"measurement": "inhibition at 25 µM", "setting": "L1210 [36]", "value": 48, "unit": "%"}, {"measurement": "inhibition at 1 µM", "setting": "L1210 [37]", "value": 89, "unit": "%"}]}]}
